Structures are written as SMILES.

The target of one assay is T1, human tyrosinase (Homo sapiens, UniProt P14679).
T1 sequence (P14679 19-529): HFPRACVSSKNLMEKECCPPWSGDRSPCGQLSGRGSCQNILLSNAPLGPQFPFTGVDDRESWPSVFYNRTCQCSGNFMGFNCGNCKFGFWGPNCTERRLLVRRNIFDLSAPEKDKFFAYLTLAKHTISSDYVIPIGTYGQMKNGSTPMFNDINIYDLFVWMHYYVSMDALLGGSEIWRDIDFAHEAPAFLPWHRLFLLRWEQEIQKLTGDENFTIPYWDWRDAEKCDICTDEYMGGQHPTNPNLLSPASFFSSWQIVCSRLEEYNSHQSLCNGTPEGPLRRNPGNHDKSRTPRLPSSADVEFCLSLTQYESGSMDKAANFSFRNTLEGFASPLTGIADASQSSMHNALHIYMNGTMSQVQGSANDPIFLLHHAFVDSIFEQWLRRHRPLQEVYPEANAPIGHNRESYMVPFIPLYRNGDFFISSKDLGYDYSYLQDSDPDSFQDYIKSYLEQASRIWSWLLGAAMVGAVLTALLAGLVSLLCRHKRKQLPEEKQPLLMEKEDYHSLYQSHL
Kind of assay: Enzyme test: conversion of L-DOPA to L-dopaquinone by a human tyrosinase (MBTH, absorption at 490 nm). It counts as biochemical. The following applies: concentration 10 μg/ml; inhibition of the tyrosinase activity. As for the experimental part: Method Description of the Effectiveness Investigations:
In this literature-known method (Winder, A. J. and Harris, H., New assays for the tyrosine hydroxylase and dopa oxidase activities of tyrosinase. Eur. J. Biochem. (1991), 198, 317-26), the reaction product L-dopaquinone is reacted with MBTH (3-methyl-2-benzothiazoline hydrazone) to give a pink-colored substance, the increase of which is measured over the time by absorption at 490 nm. […] It can be concluded from this that the substances according to the invention are extremely effective pigmentation-inhibiting substances.
As for `CC(C)Nc1nc(-c2ccc(O)cc2O)cs1` [4-(2-Isopropylamino)thiazol-4-yl)benzene-1,3-diol, reference compound], the “Inhibition (% of the control)” value is listed as 91%.

Staying with this assay, now noted: concentration 10 μg/ml; inhibition of the tyrosinase activity; read-out: Inhibition (% of the control).
One may read the inhibition as the percentage by which the read-out fell short of the control. With `CCCC(=O)Nc1nc(-c2ccc(O)cc2O)cs1` [N-(4-(2,4-Dihydroxyphenyl)thiazol-2-yl)butyramide], the inhibition at 10 µg/mL amounted to 95%.
On the same count and under the same terms, the result for `CC(C)C(=O)Nc1nc(-c2ccc(O)cc2O)cs1` [N-(4-(2,4-Dihydroxyphenyl)thiazol-2-yl)isobutyramide] reads 94%; that for `OCc1ccc(Nc2nc(-c3ccc(O)cc3O)cs2)cc1` [4-(2-((4-(Hydroxymethyl)phenyl)amino)thiazol-4-yl)benzene-1,3-diol, reference compound], 93%; that for `O=C(Nc1nc(-c2ccc(O)cc2O)cs1)C1CCC(CO)CC1` (stereo not shown) [N-(4-(2,4-Dihydroxyphenyl)thiazol-2-yl)-4-(hydroxymethyl)cyclohexanecarboxamide], 94%.
On the same count and under the same terms, the figure for `O=C(Cc1ccc(CO)cc1)Nc1nc(-c2ccc(O)cc2O)cs1` [N-(4-(2,4-Dihydroxyphenyl)thiazol-2-yl)-2-(4-(hydroxymethyl)phenyl)acetamide] is 88%.
Take `O=C(Nc1nc(-c2ccc(O)cc2O)cs1)C1CCCCC1` [N-(4-(2,4-Dihydroxyphenyl)thiazol-2-yl)cyclohexanecarboxamide]: the inhibition at 10 µg/mL was 92%.
Still for that read-out and setting: the result for `CCCCCCC(=O)Nc1nc(-c2ccc(O)cc2O)cs1` [N-(4-(2,4-Dihydroxyphenyl)thiazol-2-yl)heptanamide] reads 66%.
Still for that read-out and setting: the result for `CCCNc1nc(-c2ccc(O)cc2O)cs1` [4-(2-(Propylamino)thiazol-4-yl)benzene-1,3-diol, reference compound] reads 88%; that for `CC(C)(C)C(=O)Nc1nc(-c2ccc(O)cc2O)cs1` [N-(4-(2,4-Dihydroxyphenyl)thiazol-2-yl)pivalamide], 96%.
On the same count and under the same terms, the result for `CCCCCCNc1nc(-c2ccc(O)cc2O)cs1` [4-(2-(Hexylamino)thiazol-4-yl)benzene-1,3-diol, reference compound] reads 41%.
Take `CC(C)(C)Nc1nc(-c2ccc(O)cc2O)cs1` [4-(2-(tert-Butylamino)thiazol-4-yl)benzene-1,3-diol, reference compound]: the inhibition at 10 µg/mL was found to be 62%.
With `Oc1ccc(-c2csc(NC3CCCCC3)n2)c(O)c1` [4-(2-(Cyclohexylamino)thiazol-4-yl)benzene-1,3-diol, reference compound], the inhibition at 10 µg/mL was found to be 70%.

Values taken from patent US9533963B2, “Alkylamidothiazoles, cosmetic or dermatological preparations containing said alkylamidothiazoles, and use thereof to combat or prevent undesired pigmentation of the skin” (BEIERSDORF AG, priority 2011, dated 2017).
